Assay: PK and tissue distribution of GC-Mel/Mel at various intervals after CAB 1.11i in TLS174T xenograft mice
Format: in vivo, Ncr athymic nude mice
Experimental: We assessed the tumor retention characteristics of CAB1.11i by monitoring the formation of Mel from the administration of GC-Mel. Dosing solutions were prepared on the day of dosing, within 60 minutes of administration.
The concentration of the formulation of GC-Mel in bicarbonate/sucrose was based on average […] weight, the desired volume of administration and a dose level of 150 mg/kg. GC-Mel was weighed out and, based on this weight, the appropriate amount of sodium bicarbonate to neutralize all 3 equivalents of the three carboxylic acid sites of GC-Mel was determined. Vehicle was prepared in the required volume by adding the precalculated sodium bicarbonate solution in 5% aqueous sucrose. Vehicle was prechilled at 4° C. Cold vehicle was added to the GC-Mel powder and the mixture was vortexed and sonicated to achieve speedy dissolution.
The animals were be implanted subcutaneously on the flank with 2×10^6 TLS174T cells, a human colorectal tumor line, in 100 μl of phosphate buffered saline. Beginning approximately one week after tumor cell implant, tumors were measured every 3 to 4 days. When the tumors reached approximately 100-250 mm^3, 156 animals were selected based on tumor size and randomized into 7 groups, resulting in a non-significant difference in the mean tumor size between groups at the start of the experiment.
Mice were warmed with a heating lamp and heating pad, placed in a restrainer and the test compounds were administered by bolus intravenous injection via the tail vein. For the blood sampling, all mice were anesthetized by isoflurane inhalation at the time of sample collection. Blood was collected by cardiac puncture into tubes containing EDTA and placed on ice. Tubes were centrifuged at 4000 RPM for two minutes. The plasma fraction was removed into a pre-labeled microfuge tube and placed on dry ice or liquid nitrogen. Sample concentrations were determined.
Tissue samples were rinsed 1× in phosphate buffered saline to remove blood. The samples were snap frozen using liquid nitrogen or dry ice. Tissue samples were stored at −70° C. prior to analysis. […]

N[C@@H](Cc1ccc(N(CCCl)CCCl)cc1)C(=O)O [Mel, Melphalan]
plasma Mel level (GC-Mel 150 mg/kg given 96 hrs after CAB 1.11i 1 mg/kg): decreased to near background (concomitant) levels | plasma and kidney exposure to Mel (AUC) (with increased interval between CAB 1.11i and GC-Mel doses, FIG. 17): decreased | systemic melphalan exposure (AUC) (with increasing interval, FIG. 18): decreased
